Data set [1] can be described thus: Cyclic CO2 capacity calculated from the regressed VLE model. The conditions noted are these: for CO2 Capacity: Conc. (m): MDEA/PZ 7/2, PZ 8, MEA 7, HEP 7.7, AEP 6, 2-PE 8, AMP 4.8, EDA 12, DGA 10, PZ-MPZ 4/4, MPZ 8. The data set is classed as physicochemical.
The nature of data set [2]: Heat of CO2 absorption calculated from the VLE model. Type of data set: physicochemical. The settings on record: for ΔHabs@PCO2 = 1.5 kPa: Conc. (m): MDEA/PZ 7/2, PZ 8, MEA 7, HEP 7.7, AEP 6, 2-PE 8, AMP 4.8, EDA 12, DGA 10, PZ-MPZ 4/4, MPZ 8. As for the experimental part:
VLE models of CO2 partial pressure were regressed from experimental data to calculate CO2 capacity and enthalpy of CO2 absorption (ΔHabs).
Heat of absorption was calculated from the model mentioned above by applying the following thermodynamic equation: […]
Heat of absorption was calculated from the model mentioned above by applying the Gibbs-Helmholtz equation: […]
The heat absorption of CO2 at a 1.5 kPa, which is an average CO2 partial pressure for lean and rich solutions, was calculated.

Data set [3] in a line: Solubility and solids precipitation limits of amines in water. The data set is classed as physicochemical.
The conditions of data set [4]: ambient temperature; cited from earlier work.
Data set [5] in a line: CO2 solubility (CO2 partial pressure) measured in the wetted wall column. The data set is classed as physicochemical. The text has this: (§1) VLE models of CO2 partial pressure were regressed from experimental data to calculate CO2 capacity and enthalpy of CO2 absorption (ΔHabs). […] MPZ and PZ-MPZ both have a slightly higher capacity than PZ. PZ-MPZ absorbs CO2 at a slightly slower rate than 8 m PZ at rich loading, about 50% faster than 7 m MEA. kg′ for MPZ is the same to 7 m MEA. Heat of CO2 absorption for PZ-MPZ (ΔHabs=70 kJ/mol) and MPZ (72 kJ/mol) is close to that for PZ (70 kJ/mol).
CO2 solubility for PZ-MPZ and MPZ are shown in FIG. 3 and FIG. 4, respectively. The filled points are experimental data at varied loadings and temperatures. Parameters for the following semi-empirical VLE equation (Equation 3) were regressed and the model was presented as solid curves in the figures. The curves fit the points satisfactorily. ln P=a+b/T+c·α+d·α/T+e·α^2 Eqn. 3
CO2 solubility for 1-MPZ and the PZ blend are shown in FIG. 11 and FIG. 12 respectively. The filled points are experimental data at varied loadings and temperatures. Parameters for the following semi-empirical VLE equation ln P=a+b/T+c·α+d·α/T+e·α^2 (Eqn. 3) were regressed and the model was presented as curves in the figures. α is the CO2 loading defined as nCO2/nalka. The curves fit the points satisfactorily.

Data set [6] in a line: CO2 absorption/desorption rate (liquid film mass transfer coefficient kg′) in the wetted wall column. Type of data set: physicochemical.
Description: The CO2 absorption rate of a particular amine may be useful in determining whether an amine is desirable for acidic gas removal. In general, a greater rate of CO2 absorption will allow for the use of less packing, reduced lean loading, or greater rich loading, which in turn can reduce energy consumption. The rate of CO2 absorption can be characterized as the normalized flux, kg′ (gmol/m^2-s-Pa), measured in a model contactor such as a wetted wall column. Similarly, a greater heat of CO2 desorption will reduce the energy requirement of an absorber/stripper relying upon temperature swing regeneration.
as §1
In FIG. 5, absorption/desorption rates for PZ-MPZ at 40° C., 60° C., 80° C. and 100° C. are compared with that of 7 m MEA and 8 m PZ at 40° C.
In FIG. 13 and FIG. 14, absorption/desorption rates for 1-MPZ and the PZ blend at 40° C., 60° C., 80° C. and 100° C. are compared with that of 7 m MEA and 8 m PZ at 40° C.

Data set [7] in a line: Solubility measurements of CO2 loaded PZ/1-MPZ/1,4-DMPZ blends. The data set is classed as physicochemical. As for the experimental part: Solubility measurements for CO2 loaded 3.9 m PZ/3.9 m 1-MPZ/0.2 m 1,4-DMPZ and 3.75 m PZ/3.75 m 1-MPZ/0.5 m 1,4-DMPZ solutions were taken to predict the solubility envelope of these blends. The solubility of the blends at varying loadings and temperatures are shown in FIG. 7 for the 3.9 m PZ/3.9 m 1-MPZ/0.2 m 1,4-DMPZ blend and in FIG. 8 for the 3.75 m PZ/3.75 m 1-MPZ/0.5 m 1,4-DMPZ blend. […] At 0° C., the 8 m blend: 3.75 m PZ/3.75 m 1-MPZ/0.5 m […] was soluble at 2° C. with a lean loading of 0.17 mol CO2/mol alkalinity, in contrast to 8 m PZ, which must be operated at loading above 0.3 to avoid solids precipitation.
A maximum CO2 loading of 0.41 and 0.39 was obtained for the 3.9 m PZ/3.9 m 1-MPZ/0.2 m 1,4-DMPZ blend and the 3.75 m PZ/3.75 m 1-MPZ/0.5 m 1,4 DMPZ blend respectively at room temperature without any solid precipitation. Intermediary loaded solutions were prepared by appropriately mixing the rich loaded and zero loaded solutions and observed at temperatures between 0° C. and the melting point of the solution.

Data set [8] in a line: Thermal degradation in sealed stainless steel cylinders at 150° C., loss of original amine over time. The data set is classed as physicochemical. The settings on record: 8 m 1-MPZ, end of the experiment (30 weeks). As for the experimental part: Samples of each solution were contained in stainless steel, well-sealed cylinders and placed in a forced-convection oven for extended periods of time. The loss of the original amine is tracked over time to determine the rate of thermal degradation.
The thermal degradation of 8 m 1-MPZ at 150° C. was studied. The main degradation products are PZ, 1,4-DMPZ, formyl amides, and formate.
The thermal degradation of a blend of 4 m PZ and 4 m 1-MPZ at 150° C. was previously studied. […] Based on the results of the 8 m 1-MPZ experiment discussed above, 1,4-DMPZ was expected to be produced as a degradation product.
Solutions with varying compositions were placed in thermal cylinders at 150° C. for up to 15 weeks. At this temperature, some degradation will occur, but the conversion between PZ, 1-MPZ, and 1,4-DMPZ should be able to be observed. Three starting solutions were used: 5 m PZ+2 m 1-MPZ+1 m 1,4-DMPZ (5/2/1), 5 m PZ+2.5 m 1-MPZ+0.5 m 1,4-DMPZ (5/2.5/0.5), and 5 m PZ+1.5 m 1-MPZ+[…]. To establish the blend concentrations, it was originally hypothesized that the equilibrium concentration would be 5/2/1. Therefore, that blend, as well as two blends with increased or decreased 1-MPZ concentrations were used and the concentration of 1,4-DMPZ was adjusted to maintain a total concentration of 8 m.

The conditions of data set [9]: 298K; cited from earlier work.

As to `CC(C)(N)CO` [AMP], the “CO2 Capacity” value in [1] is listed as 0.96 mol/kg (water + amine). The “ΔHabs@PCO2 = 1.5 kPa” value in [2] was 17.4 kcal/mol.
The corresponding values for `OCCC1CCCCN1` (stereo not shown) [2-PE] are 1.23 mol/kg (water + amine) and 17.4 kcal/mol.
The corresponding values for `NCCOCCO` [DGA ®] are 0.38 mol/kg (water + amine) and 19.4 kcal/mol.
Take `CC(N)CN` (stereo not shown) [1,2-diaminopropane]: in [3] (rich conditions, 8 m), the solids precipitation entry was “precipitates solids”.
On to `C1CNCCN1.O.O.O.O.O.O` [piperazine hexahydrate], for which the solubility in water result in [4] is on record as “about 2 moles/kg H2O”.
Take `NCCN1CCNCC1` [AEP]: the “CO2 Capacity” value in data set [1] is 0.66 mol/kg (water + amine). Moreover, the “ΔHabs@PCO2 = 1.5 kPa” value in data set [2] was 17.2 kcal/mol.
With `CC1CNCCN1` (racemic) [2MPZ, 2-methyl piperazine], the “solubility over CO2 loading” value was “highly soluble over the full range of CO2 loading”. For the same compound, in [1], the “CO2 Capacity” value is on record as 0.93 mol/kg (water + amine). This compound registered a PCO2 in data set [5] (Temp 40° C., CO2 Loading 0.102 mol/mol alka, 8 m MPZ) of 0.01 kPa. The compound further displayed a PCO2 in data set [5] (Temp 40° C., CO2 Loading 0.154 mol/mol alka, 8 m MPZ) of 0.04 kPa. Moreover, the PCO2 in [5] (Temp 40° C., CO2 Loading 0.203 mol/mol alka, 8 m MPZ) came out at 0.12 kPa. The same compound displayed a PCO2 in data set [5] (Temp 40° C., CO2 Loading 0.253 mol/mol alka, 8 m MPZ) of 0.32 kPa. This compound returned a PCO2 in data set [5] (Temp 40° C., CO2 Loading 0.3 mol/mol alka, 8 m MPZ) of 0.96 kPa. For the same compound, the PCO2 in [5] (Temp 40° C., CO2 Loading 0.365 mol/mol alka, 8 m MPZ) came out at 4.73 kPa. Also, the PCO2 in [5] (Temp 60° C., CO2 Loading 0.102 mol/mol alka, 8 m MPZ) is 0.09 kPa. For the same compound, in [5] (Temp 60° C., CO2 Loading 0.154 mol/mol alka, 8 m MPZ), the PCO2 was found to be 0.29 kPa. Besides, in data set [5] (Temp 60° C., CO2 Loading 0.203 mol/mol alka, 8 m MPZ), the PCO2 is reported as 0.86 kPa. Also, in [5] (Temp 60° C., CO2 Loading 0.253 mol/mol alka, 8 m MPZ), the PCO2 is 2.26 kPa. This compound came in with a PCO2 in data set [5] (Temp 60° C., CO2 Loading 0.3 mol/mol alka, 8 m MPZ) of 4.87 kPa. In data set [5] (Temp 60° C., CO2 Loading 0.365 mol/mol alka, 8 m MPZ), this compound had a PCO2 of 22.41 kPa. This compound returned a PCO2 in [5] (Temp 80° C., CO2 Loading 0.102 mol/mol alka, 8 m MPZ) of 0.59 kPa. This compound also showed a PCO2 in data set [5] (Temp 80° C., CO2 Loading 0.154 mol/mol alka, 8 m MPZ) of 1.80 kPa. In data set [5] (Temp 80° C., CO2 Loading 0.203 mol/mol alka, 8 m MPZ), the PCO2 was 4.06 kPa. Moreover, the PCO2 in [5] (Temp 80° C., CO2 Loading 0.253 mol/mol alka, 8 m MPZ) was 9.72 kPa. For the same compound, the PCO2 in data set [5] (Temp 80° C., CO2 Loading 0.3 mol/mol alka, 8 m MPZ) is given as 22.06 kPa. The same compound showed a PCO2 in [5] (Temp 100° C., CO2 Loading 0.102 mol/mol alka, 8 m MPZ) of 2.68 kPa. Moreover, the PCO2 in data set [5] (Temp 100° C., CO2 Loading 0.154 mol/mol alka, 8 m MPZ) stood at 7.39 kPa. This compound also displayed a PCO2 in data set [5] (Temp 100° C., CO2 Loading 0.203 mol/mol alka, 8 m MPZ) of 18.65 kPa. In addition, the “absorption/desorption rate (kg′) compared with PZ and MEA” value in data set [6] (0.5 kPa to 5 kPa P*CO2, comparators 7 m MEA and 8 m PZ at 40° C.) is “between MEA and PZ”. Further, the “Heat of CO2 absorption (ΔHabs)” value in [2] (8 m MPZ, 4 m PZ/4 m MPZ blend, 8 m PZ) was 17.2 kcal/mol. The “ΔHabs@PCO2 = 1.5 kPa” value in data set [2] was 17.2 kcal/mol.
On to `OCCN1CCNCC1` [HEP], for which the “CO2 Capacity” value in data set [1] is 0.68 mol/kg (water + amine). In addition, the “ΔHabs@PCO2 = 1.5 kPa” value in [2] is 16.5 kcal/mol.
With `CN1CCN(C)CC1` [1,4-DMPZ, 1,4-dimethyl-piperazine], the “precipitation when mixing only the amine in water” value in data set [7] is recorded as “no precipitation”.
As to `CN1CCNCC1` [1-MPZ, 1-methyl piperazine], in data set [1] (difference between lean and rich CO2 loading at 500 Pa and 5,000 Pa CO2 partial pressure), the “cyclic CO2 capacity” value is reported as 0.83 mol CO2/kg (water+amine). The “initial carbon not recovered in the form of the listed products” value in [8] was 21%. Further, the PCO2 in data set [5] (Temp 40° C., CO2 Loading 0.10 mol/mol alka, 8 m 1-MPZ) is given as 0.10 kPa; in [5] (Temp 40° C., CO2 Loading 0.20 mol/mol alka, 8 m 1-MPZ), 1.32 kPa; in data set [5] (Temp 40° C., CO2 Loading 0.26 mol/mol alka, 8 m 1-MPZ), 5.55 kPa; in [5] (Temp 40° C., CO2 Loading […] alka, 8 m 1-MPZ) it was 0.35 kPa; in [5] (Temp 60° C., CO2 Loading 0.10 mol/mol alka, 8 m 1-MPZ), 0.62 kPa; in data set [5] (Temp 60° C., CO2 Loading 0.20 mol/mol alka, 8 m 1-MPZ), 6.41 kPa. Besides, the PCO2 in data set [5] (Temp 60° C., CO2 Loading 0.26 mol/mol alka, 8 m 1-MPZ) came out at 22.95 kPa; in data set [5] (Temp 60° C., CO2 Loading […] alka, 8 m 1-MPZ), 2.15 kPa; in data set [5] (Temp 80° C., CO2 Loading 0.10 mol/mol alka, 8 m 1-MPZ), 3.66 kPa; in data set [5] (Temp 80° C., CO2 Loading 0.20 mol/mol alka, 8 m 1-MPZ) it was 25.30 kPa; in [5] (Temp 80° C., CO2 Loading […] alka, 8 m 1-MPZ), 10.10 kPa; in data set [5] (Temp 100° C., CO2 Loading 0.10 mol/mol alka, 8 m 1-MPZ), 12.84 kPa. This compound displayed a PCO2 in data set [5] (Temp 100° C., CO2 Loading […] alka, 8 m 1-MPZ) of 33.01 kPa. In data set [6] (0.5 kPa to 5 kPa CO2 partial pressure, comparators at 40° C.), the “absorption/desorption rate compared with 8 m PZ and 7 m MEA” value is “nearly the same as 8 m PZ and much higher than 7 m MEA”. Besides, in [9], the “first pKa” value is 9.14. Further, the “second pKa” value in [9] is given as 4.63. Moreover, the “heat absorption of CO2” value in data set [2] (at 1.5 kPa CO2 partial pressure) is 16 kcal/mol. Also, the “precipitation when mixing only the amine in water” value in data set [7] is recorded as “no precipitation”. Also, the miscibility with water entry in [3] was “fully miscible with water”.
`NCCO` [MEA, monoethanolamine]: the “CO2 Capacity” value in data set [1] is 0.47 mol/kg (water + amine). In addition, the “ΔHabs@PCO2 = 1.5 kPa” value in [2] was 19.6 kcal/mol.

The values are drawn from patent publication US8816078B2, “Acidic gas removal by aqueous amine solvents” (Board of Regents, The University of Texas System, priority 2010, dated 2014).
